Data taken from patent US6646137B1, “Non-peptide GnRH agents” (priority 1998, dated 2003).
Like-named read-outs stand apart in the source and are kept apart here.

Biological target: T1, human GnRH receptor (Homo sapiens, UniProt P30968)
T1 construct: The cDNA for the human GnRH receptor is cloned into the plasmid expression vector, pcDNA 3; expressed in transfected cells; host or cells: HEK 293 cells, stably transfected (pcDNA 3); membrane preparation
T1 sequence (P30968 1-328): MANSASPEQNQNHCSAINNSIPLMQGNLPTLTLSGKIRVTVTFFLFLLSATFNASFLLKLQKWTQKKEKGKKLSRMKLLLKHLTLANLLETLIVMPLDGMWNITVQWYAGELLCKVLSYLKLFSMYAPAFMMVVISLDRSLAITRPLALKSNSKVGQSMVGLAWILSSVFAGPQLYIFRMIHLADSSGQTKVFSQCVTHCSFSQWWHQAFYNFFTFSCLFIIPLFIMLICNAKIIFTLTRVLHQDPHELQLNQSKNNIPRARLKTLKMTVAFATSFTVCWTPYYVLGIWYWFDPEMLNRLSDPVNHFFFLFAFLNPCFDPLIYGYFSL
Assay: GnRH receptor competitive radioligand binding assay (125I-GnRH-A, HEK 293 cell membranes)
Conditions: compound at 10 μM
From the text: The cDNA for the human GnRH receptor is cloned into the plasmid expression vector, pcDNA 3 (In Vitrogen), and stably transfected in HEK 293 cells (a cell line developed by Dr. Stuart Sealfon, Mount Sinai Medical School, New York, N.Y.).
The human GnRH receptor (hGnRH) is cloned into pcDNA 3 (In Vitrogen), which provides high-level expression and a neomycin resistance marker. Lipofectamine (GIBCO BRL) is used to transfect HEK 293 cells with plasmid DNA. This method involves mixing the plasmid and reagent in serum-free medium, allowing DNA-liposome complexes to form, and overlaying cells with this solution. The HEK 293 cells are plated (seeded) on a 10-cm tissue culture dish at a density of 3×10^6 cells/dish the day before transfection. For each plate, 8 μg DNA plus 0.8 mL serum-free medium is mixed with 48 μL lipofectamine plus 0.8 mL serum-free medium, followed by incubation for 30 minutes at room temperature to allow DNA-liposome complexes to form. Serum-free medium is added to give a final volume of 6 mL/plate. The cells are rinsed twice with serum-free medium and overlayed with the DNA-liposome mixture. Five hours after transfection, an equal volume (6 mL) of medium containing 20% FBS (fetal bovine serum) is added. The cells are fed with fresh complete medium 18-24 hours after transfection. The cells are split 72 hours following transfection, at densities of 1:10 and 1:20. Stable tranformants are selected for by growth of the cells in antibiotic containing medium (G418, Sigma Chemical Company (also known as Geneticin)). Colonies are isolated and tested for receptor expression by radioligand binding and by measuring phosphoinositol turnover.
HEK 293 cells stably transfected with human GnRH receptors as described above are grown in MEM (minimal essential medium, available from Sigma Chemical Company) supplemented with 0.1% G418 (Sigma Chemical Company). Cells are homogenized in buffer A containing 50 mM Tris (pH 74.), 0.32M sucrose, 2 mM ethyleneglycol-bis(β-aminoethyl)-N,N,N′,N′-tetraacetic acid (EGTA), 1 mM phenylmethylsulfonyl fluoride (PMSF), 5 μg/mL aprotinen, 5 μg/mL Pepstatin A, and 1 μg/mL leupeptin. The homogenized cells are centrifuged at 4° C. at 20,000×g for 25 minutes, resuspended in buffer A, and recentrifuged at 4° C. at 20,000×g for an additional 25 minutes. Total membrane protein is determined with a BCA kit (Pierce, Rockford, Ill.). Membranes are stored at −70° C. at a final membrane protein concentration of 5 mg/mL.
The radioiodinated agonist analog of GnRH, [des-Gly^10, D-Ala^8]GnRH ethylamide (GnRH-A), is used as the labeled ligand. One μg of GnRH-A diluted in 0.1M acetic acid is added to an lodogen®-coated borosilicate glass tube pierce) containing 35 μL of 0.05M phosphate buffer (pH 7.4-7.6) and 1 mCi of Na[^125I]. The reaction mixture is vortexed and incubated for 1 minute at room temperature. After one minute, the mixture is vortexed again and allowed to incubate for an additional minute. Two mL of 0.5M acetic acid/1% BSA is added to the reaction tube, and the mixture is added to a C18 Sep-Pak cartridge. The cartridge is washed with subsequent washes of 5 mL H2O and 5 mL 0.5M acetic acid, and then eluted with 5×1 mL of 60% CH3CN/40% 0.5M acetic acid. The eluant is diluted with 3×volume of HPLC buffer A (0.1% TFA in H2O) and loaded onto a C18 column. The iodinated product is eluted over 20-25 minutes with a gradient of 25-100% CH3CN containing 0.1% TFA. The radioactive fractions (750 μL/fraction) are collected into clean polypropylene tubes containing 10 μL of 10% BSA. Fractions are assessed for biological activity by radioligand binding. Active fractions are utilized to screen the compounds for competitive binding assays.
HEK 293 cell membranes stably expressing hGnRHR (human GnRH receptors) are diluted to 0.5-1.0 mg/mL with assay buffer containing 50 mM HEPES (pH 7.4), 1 mM ethylenediarninetetraacetic acid (EDTA), 2.5 mM MgCl2, and 0.1% BSA. […]

[1] = average of 1st and 2nd test, read-out: Average % Remaining (percent of specific binding remaining)
[2] = crude compounds, 125I-GnRH-A, lower value = higher inhibition, read-out: % Remaining 1st Test (percent of specific binding remaining)
[3] = crude compounds, 125I-GnRH-A, lower value = higher inhibition, read-out: % Remaining 2nd Test (percent of specific binding remaining)

Row | Compound | remaining activity at 10 µM [1] | remaining activity at 10 µM [2] | remaining activity at 10 µM [3]
1 | CC(C)(C)c1ccc(CN(Cc2ccc(CNC(=N)N)cc2)C(=O)c2cccc3ccccc23)cc1 [Compound 1] | 57% | 57% | 57%
2 | CC(C)(C)c1ccc(CN(Cc2ccc(CNC(=N)N)cc2)C(=O)c2ccccc2)cc1 [Compound 2] | 57% | 59% | 54%
3 | CN(C)CCCOc1ccc(CN(Cc2ccc(CNC(=N)N)cc2)C(=O)c2ccc3ccccc3c2)cc1 [Compound 3] | 55% | 58% | 57%
4 | N=C(N)NCc1ccc(CN(CC23CC=CCC2C2CC=CCC2O3)C(=O)c2cccc3ccccc23)cc1 (stereo not drawn) [Compound 4] | 40% | 40% | 40%
5 | N=C(N)NCc1ccc(CN(CC23CC=CCC2C2CC=CCC2O3)C(=O)c2ccc3ccccc3c2)cc1 (stereo not drawn) [Compound 5] | 37% | 31% | 33%
6 | N=C(N)NCc1ccc(CN(CC23CC=CCC2C2CC=CCC2O3)C(=O)c2cccs2)cc1 (stereo not drawn) [Compound 6] | 46% | 47% | 45%
7 | N=C(N)NCc1ccc(CN(CC23CC=CCC2C2CC=CCC2O3)C(=O)c2ccco2)cc1 (stereo not drawn) [Compound 7] | 53% | 51% | 55%
8 | N=C(N)NCc1ccc(CN(CC23CC=CCC2C2CC=CCC2O3)C(=O)c2ccccc2)cc1 (stereo not drawn) [Compound 8] | 45% | 42% | 48%
9 | N=C(N)NCc1ccc(CN(CC23CC=CCC2C2CC=CCC2O3)C(=O)c2ccc(Cl)nc2)cc1 (stereo not drawn) [Compound 9] | 52% | 51% | 53%
10 | Cc1cc2c(cc1CN(Cc1ccc(CNC(=N)N)cc1)C(=O)C1CCCCC1)C(C)(C)CCC2(C)C [Compound 10] | 53% | 51% | 54%
11 | Cc1cc2c(cc1CN(Cc1ccc(CNC(=N)N)cc1)C(=O)c1cccc3ccccc13)C(C)(C)CCC2(C)C [Compound 11] | 53% | 55% | 50%
12 | Cc1cc2c(cc1CN(Cc1ccc(CNC(=N)N)cc1)C(=O)c1ccco1)C(C)(C)CCC2(C)C [Compound 13] | 13% | 14% | 11%
13 | Cc1cc2c(cc1CN(Cc1ccc(CNC(=N)N)cc1)C(=O)c1ccccc1)C(C)(C)CCC2(C)C [Compound 14] | 55% | 56% | 54%
14 | CC(=O)N(Cc1ccc(CNC(=N)N)cc1)Cc1cc2c(cc1C)C(C)(C)CCC2(C)C [Compound 15] | 59% | 58% | 60%
15 | Cc1cc2c(cc1CN(Cc1ccc(CNC(=N)N)cc1)C(=O)c1ccc(Cl)nc1)C(C)(C)CCC2(C)C [Compound 16] | 49% | 50% | 47%
16 | N=C(N)NCc1ccc(CN(Cc2ccc(OCc3ccccc3)c(OCc3ccccc3)c2)C(=O)c2ccccc2)cc1 [Compound 19] | 45% | 47% | 42%
17 | N=C(N)NCc1ccc(CN(Cc2ccc(OCc3ccccc3)c(OCc3ccccc3)c2)C(=O)c2ccc(Cl)nc2)cc1 [Compound 20] | 57% | 60% | 54%
18 | CC(=O)N(Cc1ccc(CNC(=N)N)cc1)Cc1ccc(OCc2ccccc2)c(OCc2ccccc2)c1 [Compound 21] | 49% | 46% | 51%
19 | CCOc1cc(OCC)c(OCC)cc1CN(Cc1ccc(CNC(=N)N)cc1)C(=O)c1ccco1 [Compound 22] | 55% | 52% | 57%
20 | CC(C)(C)c1ccc(CN(CCCCNC(=N)N)C(=O)c2cccc3ccccc23)cc1 [Compound 23] | 49% | 48% | 50%
21 | CC(C)(C)c1ccc(CN(CCCCNC(=N)N)C(=O)c2ccc3ccccc3c2)cc1 [Compound 24] | 56% | 58% | 58%
22 | N=C(N)NCCCCN(CC12CC=CCC1C1CC=CCC1O2)C(=O)c1cccc2ccccc12 (stereo not drawn) [Compound 25] | 46% | 41% | 51%
23 | N=C(N)NCCCCN(CC12CC=CCC1C1CC=CCC1O2)C(=O)c1ccc2ccccc2c1 (stereo not drawn) [Compound 26] | 36% | 35% | 37%
24 | Cc1cc2c(cc1CN(CCCCNC(=N)N)C(=O)C1CCCCC1)C(C)(C)CCC2(C)C [Compound 27] | 59% | 56% | 62%
25 | Cc1cc2c(cc1CN(CCCCNC(=N)N)C(=O)c1cccc3ccccc13)C(C)(C)CCC2(C)C [Compound 28] | 52% | 46% | 57%
26 | Cc1cc2c(cc1CN(CCCCNC(=N)N)C(=O)c1ccc3ccccc3c1)C(C)(C)CCC2(C)C [Compound 29] | 57% | 53% | 61%
27 | Cc1cc2c(cc1CN(CCCCNC(=N)N)C(=O)c1ccco1)C(C)(C)CCC2(C)C [Compound 30] | 33% | 29% | 37%
28 | Cc1cc2c(cc1CN(CCCCNC(=N)N)C(=O)c1ccccc1)C(C)(C)CCC2(C)C [Compound 31] | 45% | 44% | 45%
29 | Cc1cc2c(cc1CN(CCCCNC(=N)N)C(=O)c1ccc(Cl)nc1)C(C)(C)CCC2(C)C [Compound 32] | 57% | 52% | 61%
30 | N=C(N)NCCCCN(Cc1ccc(OCc2ccccc2)c(OCc2ccccc2)c1)C(=O)C1CCCCC1 [Compound 33] | 59% | 52% | 65%
